Measurements published in ChEMBL document CHEMBL1201862, “PubChem BioAssay data set” (2004).
Values joined by “and” are separate entries in the source; they are usually repeats but may differ in a detail not shown here. Equal values may be shown once. Active and inactive are the calls of the source.

Key:
INS1 [1] = assay: INS-1E mitochondrial potential rescue under cytokines – cell-based, JC-1 fluorescence ratio, dry powder, dose response (AID 488931); type: functional; conditions: Rattus norvegicus
[2] = molecular target: Sphingosine 1-phosphate receptor 2 (Homo sapiens, UniProt O95136); assay: Late-stage fluorescence-based dose-response cell-based counterscreen assay to identify agonists of the Sphingosine 1-Phosphate Receptor 3 (S1P3): Sphingosine 1-Phosphate Receptor 2 (S1P2) agonist assay.; type: functional
[3] = molecular target: Sphingosine 1-phosphate receptor 4 (Homo sapiens, UniProt O95977); assay: Late-stage fluorescence-based dose-response cell-based counterscreen assay to identify agonists of the Sphingosine 1-Phosphate Receptor 3 (S1P3): Sphingosine 1-Phosphate Receptor 4 (S1P4) agonist assay.; type: functional
Sequence of Sphingosine 1-phosphate receptor 4 (O95977 whole entry): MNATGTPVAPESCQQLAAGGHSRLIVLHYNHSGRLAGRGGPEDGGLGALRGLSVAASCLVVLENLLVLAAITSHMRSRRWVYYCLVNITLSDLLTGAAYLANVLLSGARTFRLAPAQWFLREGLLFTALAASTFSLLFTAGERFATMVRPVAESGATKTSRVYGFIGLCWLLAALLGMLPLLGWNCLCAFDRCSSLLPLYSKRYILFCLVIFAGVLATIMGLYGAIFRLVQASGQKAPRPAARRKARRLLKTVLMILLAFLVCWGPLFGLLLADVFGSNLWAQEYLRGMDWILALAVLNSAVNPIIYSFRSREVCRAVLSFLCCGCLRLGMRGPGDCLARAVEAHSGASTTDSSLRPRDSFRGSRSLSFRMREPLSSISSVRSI

[4] = tested on: Streptococcus sp. 'group A'; assay: Streptococcus pyogenes SK(-)GAS viability under kanamycin – luminescence, BacTiterGlo, confirmation, counter-screen for streptokinase expression inhibitor project, dose response (AID 1900); type: functional, organism-based
SUMO-activating enzyme [5] = molecular target: T1, SUMO-activating enzyme (Homo sapiens, UniProt Q9UBT2); assay: blockers of UBC9-mediated SUMO conjugation – biochemical, AlphaScreen, SUMOylation inhibitor project, confirmation (AID 2018); type: functional
T1 sequence (Q9UBE0 whole entry): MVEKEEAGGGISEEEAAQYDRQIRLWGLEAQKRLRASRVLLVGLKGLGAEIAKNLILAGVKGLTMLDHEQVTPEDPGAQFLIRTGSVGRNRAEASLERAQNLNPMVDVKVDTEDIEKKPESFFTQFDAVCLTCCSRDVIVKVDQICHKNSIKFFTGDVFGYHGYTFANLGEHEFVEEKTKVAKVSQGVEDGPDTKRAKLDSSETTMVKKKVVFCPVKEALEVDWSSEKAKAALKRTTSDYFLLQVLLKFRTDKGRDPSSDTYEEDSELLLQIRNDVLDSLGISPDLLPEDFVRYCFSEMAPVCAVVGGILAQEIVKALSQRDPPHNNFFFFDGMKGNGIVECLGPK
T1 sequence (Q9UBT2 whole entry): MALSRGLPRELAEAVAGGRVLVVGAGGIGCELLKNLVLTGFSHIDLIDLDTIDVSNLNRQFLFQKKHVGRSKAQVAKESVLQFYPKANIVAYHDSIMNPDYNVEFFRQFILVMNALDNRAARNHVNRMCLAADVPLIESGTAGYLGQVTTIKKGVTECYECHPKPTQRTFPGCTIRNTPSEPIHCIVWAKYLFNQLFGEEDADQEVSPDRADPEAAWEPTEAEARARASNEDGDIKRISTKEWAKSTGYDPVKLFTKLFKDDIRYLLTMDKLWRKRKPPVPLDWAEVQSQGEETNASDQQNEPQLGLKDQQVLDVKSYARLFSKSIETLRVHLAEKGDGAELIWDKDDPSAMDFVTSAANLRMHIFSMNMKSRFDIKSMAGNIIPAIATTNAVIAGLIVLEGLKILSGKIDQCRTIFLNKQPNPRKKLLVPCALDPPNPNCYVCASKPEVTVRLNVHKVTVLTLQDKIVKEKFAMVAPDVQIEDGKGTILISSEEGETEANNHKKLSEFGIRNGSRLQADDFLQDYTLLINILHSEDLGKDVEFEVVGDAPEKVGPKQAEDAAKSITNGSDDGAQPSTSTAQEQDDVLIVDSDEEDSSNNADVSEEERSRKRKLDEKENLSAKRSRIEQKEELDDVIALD

Streptokinase A = molecular target: T2, Streptokinase A (Streptococcus pyogenes serotype M1, UniProt P10520); assay: viability-normalized secreted streptokinase activity reduction – plasminogen activation absorbance, OD405, dose response (AID 1914); type: functional, Streptococcus pyogenes M1 GAS;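 further: secreted streptokinase activity via plasminogen activation per viability signal from cell pellet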
T2 sequence (P10520 whole entry): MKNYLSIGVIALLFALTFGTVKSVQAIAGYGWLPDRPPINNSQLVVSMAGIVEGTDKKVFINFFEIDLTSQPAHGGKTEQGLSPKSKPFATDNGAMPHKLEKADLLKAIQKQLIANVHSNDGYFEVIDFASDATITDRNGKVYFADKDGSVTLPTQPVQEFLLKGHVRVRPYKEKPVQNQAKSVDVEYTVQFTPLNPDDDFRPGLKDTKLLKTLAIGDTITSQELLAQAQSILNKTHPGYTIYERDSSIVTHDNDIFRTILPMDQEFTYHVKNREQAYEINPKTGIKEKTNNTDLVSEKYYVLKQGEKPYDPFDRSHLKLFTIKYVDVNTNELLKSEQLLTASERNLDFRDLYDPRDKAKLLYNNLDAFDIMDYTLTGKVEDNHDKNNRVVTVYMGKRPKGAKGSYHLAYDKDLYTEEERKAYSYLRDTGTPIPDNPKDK

SUMO-activating enzyme [6] = molecular target: T1, SUMO-activating enzyme; assay: blockers of SAE1/SAE2–UBC9 SUMO transfer – biochemical, HTRF, uHTS, primary screen (AID 2006); type: protein-complex assay
Streptococcus = assay: GAS UMAA2166 growth inhibition – luminescence, BacTiterGlo, counter-screen for streptokinase expression inhibitor project, dose response (AID 1915); type: functional, organism-based;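 further: potency for reduction of bacterial viability or growth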
[7] = molecular target: 26S proteasome non-ATPase regulatory subunit 14 (Homo sapiens, UniProt O00487); assay: inhibition of proteasome subunit RPN11 – biochemical, fluorescence polarization, uHTS hits, confirmation (AID 602368); type: functional
[8] = molecular target: 72 kDa type IV collagenase (Homo sapiens, UniProt P08253); assay: Dose Response validation of uHTS RPN11 inhibitor hits using a MMP-2 Fluorescence assay.; type: functional
Sequence of 72 kDa type IV collagenase (P08253 whole entry): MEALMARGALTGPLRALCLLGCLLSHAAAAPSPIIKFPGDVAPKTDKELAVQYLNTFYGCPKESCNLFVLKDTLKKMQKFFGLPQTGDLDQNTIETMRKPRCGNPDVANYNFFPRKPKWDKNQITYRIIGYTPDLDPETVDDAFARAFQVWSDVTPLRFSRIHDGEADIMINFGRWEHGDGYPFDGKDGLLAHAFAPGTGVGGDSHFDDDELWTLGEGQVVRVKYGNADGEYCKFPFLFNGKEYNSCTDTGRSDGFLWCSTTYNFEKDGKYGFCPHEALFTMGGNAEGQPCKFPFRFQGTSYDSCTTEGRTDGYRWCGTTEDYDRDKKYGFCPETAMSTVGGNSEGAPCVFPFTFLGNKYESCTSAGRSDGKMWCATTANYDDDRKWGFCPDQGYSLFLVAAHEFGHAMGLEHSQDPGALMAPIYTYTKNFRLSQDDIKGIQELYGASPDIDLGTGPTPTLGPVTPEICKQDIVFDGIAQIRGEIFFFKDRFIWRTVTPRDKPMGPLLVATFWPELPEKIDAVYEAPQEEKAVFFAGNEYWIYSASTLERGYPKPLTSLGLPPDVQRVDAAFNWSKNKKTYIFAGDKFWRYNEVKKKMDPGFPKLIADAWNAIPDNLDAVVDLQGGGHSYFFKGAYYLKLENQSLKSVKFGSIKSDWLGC

Prothrombin = Prothrombin (Bos taurus, UniProt P00735); assay: thrombin protease inhibitors – biochemical, fluorescence polarization, uHTS hits, dose response (AID 602369); type: functional
[9] = molecular target: T3, Small ubiquitin-related modifier 1 (Homo sapiens, UniProt P63165); assay: SUMO1 protein interaction blockers, potency – biochemical, fluorescence polarization, uHTS hits, dose response (AID 624382); type: functional; conditions: read-out: IC50_Mean
T3 sequence (P63165 whole entry): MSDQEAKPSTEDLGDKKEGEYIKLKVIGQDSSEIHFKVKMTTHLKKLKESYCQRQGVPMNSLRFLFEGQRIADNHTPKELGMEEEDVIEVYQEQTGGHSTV

[10] = molecular target: T3, Small ubiquitin-related modifier 1; assay: SUMO1 protein-protein binding blockers, potency – biochemical, FRET, dose response (AID 624383); type: functional; conditions: read-out: IC50_Mean
[11] = luciferase reporter signal suppression in cells – H4 neuroglioma cells, luminescence, dose response (AID 1990); type: functional, cell-based
[12] = decrease of insulin promoter-GFP reporter – imaging, high-content screening, mouse beta cells (AID 1628); type: functional; conditions: MIN6
cells [13] = type: functional, cell-based
[14] = Luminescence Cell-Based Dose Response HTS to Identify Inhibitors of 5'UTR Stem-Loop Driven Prion Protein mRNA Translation in H4 Neuroglioblastoma Cells. [Related pubchem assays: 1827 (Project Summary), 1813 (Primary HTS)]; type: functional
[15] = MIN6 cell viability loss – mouse insulinoma, cytotoxicity control, dose response (AID 2122); type: functional;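 further: confirmatory high-throughput counterscreen run to flag cytotoxic compounds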
[16] = alpha-synuclein stem-loop luciferase translation blockers – H4 neuroglioma cells, luminescence, confirmation (AID 1988); type: functional, cell-based
cells [17] = type: functional, cell-based; remark: listed apart in the source
[18] = Luminescence Cell-Based Dose Retest to Confirm Inhibitors of Cancer Stem Cells. [Related pubchem assays (depositor defined):AID2717, AID2721]; type: functional; conditions: Homo sapiens
HEK293 = assay: EBV LMP1 TES2 canonical NF-kB signalling blockers – cell-based, HEK293, luciferase, cherry-pick, dose response (AID 588343); type: functional; conditions: Homo sapiens
[19] = molecular target: Latent membrane protein 1 (Human herpesvirus 4 (strain B95-8), UniProt P03230); assay: LMP1 TES1 pathway selectivity over dsRED control – imaging, HEK293T, dual-color eGFP/dsRED, cherry-picks, selectivity assay for LMP1 NF-kB inhibitor project, dose response (AID 588398); type: functional, cell-based
INS1 [20] = assay: INS-1E survival protection against cytokine death – cell-based, luminescence, retest, dose response (AID 449756); type: functional; conditions: Rattus norvegicus;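 further: cell death triggered by IL-1 beta plus TNF-alpha plus IFN-gamma mixture; protective hits raise ATP signal compared with cytokine alone wells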
Aurora kinase A = Aurora kinase A (Homo sapiens, UniProt O14965); type: functional;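 further: value from the Navigating the Kinome kinase panel profiling, panel entry STK6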
Sequence of Aurora kinase A (O14965 whole entry): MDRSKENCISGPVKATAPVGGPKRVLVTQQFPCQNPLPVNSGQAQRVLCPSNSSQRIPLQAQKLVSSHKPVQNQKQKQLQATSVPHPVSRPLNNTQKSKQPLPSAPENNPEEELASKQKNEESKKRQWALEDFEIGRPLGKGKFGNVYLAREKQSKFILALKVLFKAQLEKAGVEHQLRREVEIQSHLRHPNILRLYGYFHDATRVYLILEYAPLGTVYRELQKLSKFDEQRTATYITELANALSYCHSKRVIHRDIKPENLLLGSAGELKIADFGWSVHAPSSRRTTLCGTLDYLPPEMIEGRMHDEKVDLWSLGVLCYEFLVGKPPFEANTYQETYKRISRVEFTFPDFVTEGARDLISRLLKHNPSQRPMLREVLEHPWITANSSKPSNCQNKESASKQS

Aurora kinase B = Aurora kinase B (Homo sapiens, UniProt Q96GD4); type: functional
Sequence of Aurora kinase B (Q96GD4 whole entry): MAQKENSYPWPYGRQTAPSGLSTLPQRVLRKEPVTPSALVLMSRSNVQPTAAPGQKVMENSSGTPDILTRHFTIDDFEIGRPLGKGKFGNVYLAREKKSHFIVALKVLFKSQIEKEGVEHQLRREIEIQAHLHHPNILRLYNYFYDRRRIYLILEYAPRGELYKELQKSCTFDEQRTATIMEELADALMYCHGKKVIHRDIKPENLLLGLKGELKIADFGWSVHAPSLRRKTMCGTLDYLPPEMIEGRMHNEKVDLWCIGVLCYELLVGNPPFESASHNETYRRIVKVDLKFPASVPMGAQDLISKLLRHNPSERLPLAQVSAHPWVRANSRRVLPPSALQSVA

[21] = molecular target: Cyclin-dependent kinase 19 (Homo sapiens, UniProt Q9BWU1); assay: Navigating the Kinome. Panel member name: CDC2L6; type: functional
SRSF protein kinase 1 = SRSF protein kinase 1 (Homo sapiens, UniProt Q96SB4); type: functional;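 further: measured as one member of a kinome-wide kinase profiling panel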
[22] = molecular target: Serine/threonine-protein kinase PAK 1 (Homo sapiens, UniProt Q13153); type: functional
[23] = molecular target: Interleukin-1 receptor-associated kinase 4 (Homo sapiens, UniProt Q9NWZ3); type: functional
Sequence of Interleukin-1 receptor-associated kinase 4 (Q9NWZ3 whole entry): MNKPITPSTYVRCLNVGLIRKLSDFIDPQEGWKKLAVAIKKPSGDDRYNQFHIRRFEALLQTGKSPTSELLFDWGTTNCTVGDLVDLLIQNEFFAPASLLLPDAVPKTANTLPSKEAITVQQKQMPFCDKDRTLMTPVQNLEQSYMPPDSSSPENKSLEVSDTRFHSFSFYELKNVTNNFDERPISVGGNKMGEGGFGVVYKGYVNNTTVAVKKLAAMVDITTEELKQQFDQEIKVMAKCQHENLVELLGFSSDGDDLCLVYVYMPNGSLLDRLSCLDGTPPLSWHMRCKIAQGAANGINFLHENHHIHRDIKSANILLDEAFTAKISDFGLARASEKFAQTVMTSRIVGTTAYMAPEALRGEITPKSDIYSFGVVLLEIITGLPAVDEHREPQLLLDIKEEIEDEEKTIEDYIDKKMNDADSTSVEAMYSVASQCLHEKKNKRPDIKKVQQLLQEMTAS

Cytochrome P450 2C19 [24] = molecular target: T4, Cytochrome P450 2C19 (Homo sapiens, UniProt P33261); assay: qHTS Assay for Inhibitors and Substrates of Cytochrome P450 2C19. [Related pubchem assays: 410 ]; type: ADME; conditions: read-out: Potency
T4 sequence (P33261 whole entry): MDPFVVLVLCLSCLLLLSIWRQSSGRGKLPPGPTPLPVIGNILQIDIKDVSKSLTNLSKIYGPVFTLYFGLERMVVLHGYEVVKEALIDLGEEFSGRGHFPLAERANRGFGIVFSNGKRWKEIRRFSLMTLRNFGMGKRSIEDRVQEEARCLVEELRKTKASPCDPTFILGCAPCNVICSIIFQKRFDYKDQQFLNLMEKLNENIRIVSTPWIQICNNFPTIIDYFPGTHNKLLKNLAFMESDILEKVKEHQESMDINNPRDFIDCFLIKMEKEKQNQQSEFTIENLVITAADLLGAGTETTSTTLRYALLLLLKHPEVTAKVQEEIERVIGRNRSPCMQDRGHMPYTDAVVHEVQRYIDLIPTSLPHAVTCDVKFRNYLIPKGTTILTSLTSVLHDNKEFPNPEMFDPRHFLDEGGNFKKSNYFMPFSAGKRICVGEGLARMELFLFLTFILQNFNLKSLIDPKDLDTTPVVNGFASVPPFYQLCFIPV

Cytochrome P450 2C19 [25] = molecular target: T4, Cytochrome P450 2C19; assay: Cytochrome panel assay with activity outcomes. Panel member name: p450-cyp2c19 Compounds with AC50 equal or less than 10 uM are considered active; type: functional; conditions: read-out: AC50
[26] = molecular target: Dual specificity tyrosine-phosphorylation-regulated kinase 1A (Rattus norvegicus, UniProt Q63470); type: biochemical, Homo sapiens
[27] = molecular target: T5, Carboxy-terminal domain RNA polymerase II polypeptide A small phosphatase 1 (Homo sapiens, UniProt Q9GZU7); assay: CTDSP1 inhibitors, concentration-response, biochemical, absorbance readout, ultra-high-throughput screen actives (AID 540297); type: functional
T5 sequence (Q9GZU7 whole entry): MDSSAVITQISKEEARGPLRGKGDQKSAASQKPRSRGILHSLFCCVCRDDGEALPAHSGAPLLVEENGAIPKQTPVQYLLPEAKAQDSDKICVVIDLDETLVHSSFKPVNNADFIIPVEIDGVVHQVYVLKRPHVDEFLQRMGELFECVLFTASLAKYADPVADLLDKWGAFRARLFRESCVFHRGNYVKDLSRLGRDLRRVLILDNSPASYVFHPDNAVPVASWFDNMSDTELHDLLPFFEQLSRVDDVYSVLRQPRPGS

[28] = molecular target: T6, Rac GTPase-activating protein 1 (Homo sapiens, UniProt Q9H0H5); assay: blockers of MgcRacGAP-driven Rac1 GTP hydrolysis – biochemical, ADP Hunter fluorescence, primary and confirmatory, confirmation (AID 624330); type: functional
T6 sequence (Q9H0H5 whole entry): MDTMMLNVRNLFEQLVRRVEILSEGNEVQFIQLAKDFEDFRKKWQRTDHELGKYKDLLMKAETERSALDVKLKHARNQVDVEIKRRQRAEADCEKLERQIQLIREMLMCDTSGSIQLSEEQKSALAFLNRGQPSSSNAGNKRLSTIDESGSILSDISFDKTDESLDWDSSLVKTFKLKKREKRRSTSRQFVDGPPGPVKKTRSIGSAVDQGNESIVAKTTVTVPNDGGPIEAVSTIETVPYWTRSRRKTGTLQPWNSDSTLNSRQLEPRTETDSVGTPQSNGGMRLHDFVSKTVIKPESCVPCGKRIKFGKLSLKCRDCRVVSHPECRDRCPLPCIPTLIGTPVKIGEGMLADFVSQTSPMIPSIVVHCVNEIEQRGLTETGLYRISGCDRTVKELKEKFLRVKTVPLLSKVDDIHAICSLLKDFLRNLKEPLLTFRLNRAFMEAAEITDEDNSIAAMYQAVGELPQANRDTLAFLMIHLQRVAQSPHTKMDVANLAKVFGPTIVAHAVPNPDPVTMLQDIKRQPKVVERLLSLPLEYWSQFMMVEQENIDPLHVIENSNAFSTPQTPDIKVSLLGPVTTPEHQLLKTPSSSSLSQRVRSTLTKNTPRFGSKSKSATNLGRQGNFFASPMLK

Cytochrome P450 2C9 = Cytochrome P450 2C9 (Homo sapiens, UniProt P11712)
[29] = molecular target: Voltage-gated inwardly rectifying potassium channel KCNH2 (Homo sapiens, UniProt Q12809); conditions: Potency;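 further: confirmatory quantitative high-throughput screen measuring inhibition of hERG channel activity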
[30] = molecular target: Aryl hydrocarbon receptor (Homo sapiens, UniProt P35869); conditions: Potency;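 further: confirmatory quantitative high-throughput screen measuring activation of the AhR signaling pathway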
Sequence of Aryl hydrocarbon receptor (P35869 whole entry): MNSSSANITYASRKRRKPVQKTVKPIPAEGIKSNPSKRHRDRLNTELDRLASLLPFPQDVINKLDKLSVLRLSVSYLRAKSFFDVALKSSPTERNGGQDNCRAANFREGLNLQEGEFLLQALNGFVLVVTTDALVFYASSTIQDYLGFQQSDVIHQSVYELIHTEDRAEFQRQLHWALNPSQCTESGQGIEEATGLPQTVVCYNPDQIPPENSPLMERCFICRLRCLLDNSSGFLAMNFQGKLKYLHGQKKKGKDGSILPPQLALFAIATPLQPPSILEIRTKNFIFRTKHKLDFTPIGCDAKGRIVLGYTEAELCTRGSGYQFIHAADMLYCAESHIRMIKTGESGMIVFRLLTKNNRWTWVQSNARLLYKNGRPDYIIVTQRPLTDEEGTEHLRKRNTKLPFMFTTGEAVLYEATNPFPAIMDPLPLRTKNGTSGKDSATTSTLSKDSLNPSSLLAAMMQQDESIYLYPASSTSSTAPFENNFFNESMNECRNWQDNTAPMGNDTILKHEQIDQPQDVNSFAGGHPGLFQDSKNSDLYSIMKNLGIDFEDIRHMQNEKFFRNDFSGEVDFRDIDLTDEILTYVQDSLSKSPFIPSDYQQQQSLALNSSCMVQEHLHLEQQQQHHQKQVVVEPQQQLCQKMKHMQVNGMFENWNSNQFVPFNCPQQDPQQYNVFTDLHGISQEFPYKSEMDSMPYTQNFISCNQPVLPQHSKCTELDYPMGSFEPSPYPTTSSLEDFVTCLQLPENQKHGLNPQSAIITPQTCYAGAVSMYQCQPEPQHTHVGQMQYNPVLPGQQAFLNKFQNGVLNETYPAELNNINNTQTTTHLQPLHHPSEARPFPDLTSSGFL

## COc1ccc(S(=O)(=O)Nc2cccc3c2O[C@@H](CN(C)S(=O)(=O)c2ccc(OC)cc2)[C@H](C)CN([C@@H](C)CO)C3=O)cc1
INS1 [1]
  AC50: 73.4 µM (active)

## O=C(c1cc(C2CC2)on1)N(CC1CCCCC1)C1CCCCC1
[2]
  EC50: > 50 µM (inactive)
[3]
  EC50: > 50 µM (inactive)

## Sc1nnc(-c2cc(-c3ccccc3)[nH]n2)n1/N=C/c1ccc(Br)s1
[4]
  EC50: 14.6 µM (active)
SUMO-activating enzyme [5]
  IC50: 6.99 µM (active)
Streptokinase A
  EC50: > 150 µM (not active)
SUMO-activating enzyme [6]
  IC50: 10.3 µM (active)
Streptococcus
  EC50: > 150 µM (not active)
[7]
  IC50: 14.5 µM (active)
[8]
  IC50: > 100 µM (inactive)
Prothrombin
  IC50: 32.9 µM (active)
[9]
  IC50: > 66.6 µM (inactive)
[10]
  IC50: 7.25 µM (active)

## CCOC(=O)c1c(C)[nH]c(C(=O)N/N=C\c2ccccc2O)c1C
[11]
  EC50: > 120 µM (not active)
[12]
  IC50: 2.25 µM (active)
Cells [13]
  EC50: 6.77 µM (active)
[14]
  EC50: > 120 µM (not active)
[15]
  IC50: 1.99 µM (active)
[16]
  EC50: 8.44 µM (active)
Cells [17]
  EC50: 41.9 µM (active)
[18]
  AC50: 3.54 µM (active)
HEK293
  AC50: 4.91 µM (active)
[19]
  AC50: 14.6 µM (active)
INS1 [20]
  AC50: 1.69 µM (active)

## Cc1oc2ncnc(N)c2c1-c1ccc(NC(=O)Nc2cccc(C(F)(F)F)c2)cc1
Aurora kinase A
  Ki: 0.0794 µM (active)
Aurora kinase B
  Ki: 0.0126 µM (active)
[21]
  Ki: 3.98 µM (active)

## Cc1ccc(C2(c3ccc(C)cc3)CC2C(=O)Nc2ccncc2)cc1 (stereo not drawn)
SRSF protein kinase 1
  Ki: 2.51 µM (active)
[22]
  Ki: > 10 µM (inactive)
[23]
  Ki: > 10 µM (inactive)

## O=c1c(O)c(-c2ccc(O)cc2)oc2cc(O)cc(O)c12 [KAEMPFEROL]
Cytochrome P450 2C19 [24]
  AC50: 10 µM (inconclusive)
Cytochrome P450 2C19 [25]
  AC50: 6.31 µM (inconclusive)
[26]
  AC50: 1.26 µM (active)
[27]
  IC50: 9.93 µM (active)
[28]
  IC50: 44.5 µM (active)
Cytochrome P450 2C9
  AC50: 0.00126 µM (inconclusive)
[29]
  AC50: 0.0022 µM (inconclusive)
[30]
  AC50: 44.7 µM (inconclusive) and 56.2 µM (inconclusive)
